One data set addresses NSD3 (Homo sapiens (Human), UniProt Q9BZ95). The experiment in a line: Methyltransferase panel, 10-dose IC50 mode. The settings on record: Substrate: Nucleosomes; 1 μM SAM; read-out: Control IC50*. Format: biochemical. How it is done:
(§1) Compound 72b was further tested against a plurality of methyltransferases as described in the following. […] Reactions were carried out at 1 μM SAM. Curve fits were performed where the enzyme activities at the highest concentration of compounds were less than 65%. […] Compound 72b is referred to as KMI9542321 in the table below.

Another data set concerns the target PRDM9 (Homo sapiens (Human), UniProt Q9NQV7). The experiment in a line: Methyltransferase panel, 10-dose IC50 mode. The class given is biochemical. The settings on record: Substrate: Histone H3; 1 μM SAM; read-out: Control IC50*. How it is done: as §1
The next data set deals with ASH1L (Homo sapiens (Human), UniProt Q9NR48). The data set is described as follows: Methyltransferase panel, 10-dose IC50 mode. The class given is biochemical. The settings on record: Substrate: Nucleosomes; 1 μM SAM; read-out: Control IC50*. Here is the method:
as §1

A further data set has as its system A549 lung tumour cells. The experiment in a line: Cell proliferation, xCelligence RTCA. The class given is cell-based. The settings on record: final concentration of 30 μM, vs DMSO. Here is the method:
(§2) Compound 75b was tested in a proliferation assay in cell culture as described in the following. Thus, compound 75b (alternatively referred to as “KMI95423411”) was added to a final concentration of 30 μM (in the controls, DMSO as added) to cells of the following cell lines: LNCaP, SW-480, A549, MDA-MB-468 and HepG2, and the cells were cultured in the presence of inhibitor or DMSO. At the time points indicated in FIG. 15, the cells were seeded in E-plates and the cell proliferation was determined using the xCelligence RTCA system (Roche) as described below.
(§3) Cell proliferation, migration and invastion were determined using the X-Celligence RTCA system (Roche). pLenti-LacZ, pLenti-KMT9α, pLenti-KMT9α(N122A), pLenti-KMT9α(Y125A) pLenti-ETF1, pLenti-shLaZ, and pLenti-shKMT9α constructs were used to produce recombinant lentiviruses to infect LNCaP and PC-3M cells as described in Metzger et al., 2005. For real-time recording of LNCaP, LNCaP-abl, LNCaP-abl EnzaR, and C4-2B cell proliferation, 20000 cells/well were seeded in 16 well E-plates (Roche). For PC-3M, 2500 cells/well were used. For DuCaP EnzaR, LAPC4 and LAPC4 EnzaR, 40000 cells/well were used. Cells were transfected with the indicated siRNAs in presence of Dharmafect 1 (LNCaP-abl, LAPC4, LAPC4 EnzaR; Dharmacon), Dharmafect 2 (LNCaP, PC-3M), or RNAiMAx (C4-2B, LNCaP-abl EnzaR, DuCaP EnzaR; Caco-2, HT-29, SK-N-SH, SW620, SW480, HT-29, HT-115, HCT116 p53+/+ and HCT p53−/−; Life Technologies) 24 h before seeding in E-plates. Cell indices were automatically recorded every 15 minutes. Relative velocities represent the change of the cell index over time. The sequences of the siRNAs (Stealth RNAi™ siRNAs; Life Technologies) used in the experiments are as following: siCtrl: […]

A further data set has as its system HepG2 cells. The data set is described as follows: Cell proliferation, xCelligence RTCA. Format: cell-based. The settings on record: final concentration of 30 μM, vs DMSO; KMT9 non-responsive cells. How it is done: as §2, §3
For data set [1], the system named is MDA-MB-468 breast cancer cells. The experiment in a line: Cell proliferation, xCelligence RTCA. The settings on record: final concentration of 30 μM, vs DMSO. The class given is cell-based. How it is done: as §2, §3
In data set [2] the test system is LNCaP prostate tumour cells. The experiment in a line: Cell proliferation, xCelligence RTCA. The class given is cell-based, human. Here is the method: as §2, §3
Data set [3] has as its system SW-480 colorectal cancer cells. The data set is described as follows: Cell proliferation, xCelligence RTCA. The class given is cell-based, human. Conditions: final concentration of 30 μM, vs DMSO. Here is the method:
as §2, §3

Data set [4] deals with recombinant KMT9 (C21orf127/TRMT112) (Homo sapiens (Human), UniProt Q9Y5N5). The data set is described as follows: Histone H4 methylation assay with SAM[3H], autoradiography. Conditions: histone H4, SAM[3H]. The class given is biochemical. Here is the method:
FIG. 1 C21orf127/TRMT112 methylates histone H4 at K12. (A to C) Methylation assays. (A) Histone H4, H3, H2A, H2B, and H1 were incubated with SAM[^3H] in the absence or presence of recombinant C21orf127/TRMT112. (B) Wild-type or mutant histone H4 were incubated with SAM[3H] in the presence of recombinant C21orf127/TRMT112. Proteins were stained by Ponceau red. […] (C) Histone H4 was incubated with C21orf127/TRMT112, SAM[^3H], and the SAM competitive inhibitor sinefungin as indicated. Proteins were stained by Ponceau red.
FIG. 9. […] Histone H4 (2 μg) was incubated with SAM[3H] in the presence of recombinant KMT9 (KMT9α and KMT90) and the three afore-mentioned inhibitors as indicated.
It was tested in this example whether the known DOT1L-inhibitors EPZ5676, SGC0946 and EPZ004777 (which are commercially available) are capable of inhibiting KMT9. To this aim, histone H4 was incubated with SAM[^3H] in the presence of recombinant KMT9 (provided in the form of the heterodimer of KMT9α and KMT90) and the three afore-mentioned inhibitors.
Four to eight μg of purified recombinant His-C21orf127, His-C21orf127/TRMT112, His-C21orf127(D103A)/TRMT112, His-C21orf127(N122A)/TRMT112, His-C21orf127(Y125A)/TRMT112, His-TRMT112, WBSCR22/TRMT112, His-TRMT11, His-TRMT12, His-KIAA1456, His-TRMT5, His-METTL27, His-METTL21A and His-METTL21B were incubated either with 4 μg core histones or 2 μg of histones H4, H3, H2A, H2B, H1 (BPS Bioscience), histone H4K12A, or His-ETF1 as indicated in methylation buffer (10 mM Tris-HCl pH 7.6, 50 mM KCl, 10 mM Mg(OAc)2, 1 mM DTT) supplemented as indicated with 1.5 μM SAM or 1.5 μl of radioactively labelled [^3H]SAM for 60 min (METTL21A: 300 minutes, METTL21B: 18 h) at 30° C. For mass spectrometry analysis, 2 μg of histone H4 were incubated overnight with 2 μg of His-C21orf127/TRMT112 in presence of SAM, heavy SAM, or SAM/heavy SAM mixture. The reaction mixture was analysed by autoradiography, Western blotting, or mass spectrometry.

A further data set deals with SET8 (Homo sapiens (Human), UniProt Q9NQR1). The experiment in a line: Methyltransferase panel, 10-dose IC50 mode. The class given is biochemical. Conditions: Substrate: Nucleosomes; 1 μM SAM; read-out: Control IC50*. Here is the method: as §1
In the next data set the target is C21orf127 (Homo sapiens (Human), UniProt Q9Y5N5). The data set is described as follows: Isothermal titration calorimetry (ITC) SAM binding. Conditions: monomeric C21orf127. Here is the method:
(§4) ITC experiments were performed at 20° C. with a MicroCal VP-ITC microcalorimeter (Malvern). […] ITC data were analysed and fitted with one-site binding model by using Origin 7.0.

The next data set addresses TRMT112 (Homo sapiens (Human), UniProt Q9UI30). The experiment in a line: Isothermal titration calorimetry (ITC) SAM binding. Conditions: monomeric TRMT112. How it is done:
as §4
For orientation: In ITC the heat of successive injections is recorded.

In the next data set the target is C21orf127/TRMT112 (Homo sapiens (Human), UniProt Q9Y5N5). The data set is described as follows: Isothermal titration calorimetry (ITC) SAM binding. The settings on record: 20° C. Here is the method:
as §4

The target of the next data set is C21orf127(D103)/TRMT112 (Homo sapiens (Human), UniProt Q9Y5N5, D103A). The experiment in a line: Isothermal titration calorimetry (ITC) SAM binding. The settings on record: mutant heterodimer. How it is done:
as §4

The next data set concerns PC-3M xenograft tumours. The data set is described as follows: Growth of xenograft tumours in NOD/SCID mice. Format: in vivo. Conditions: cells infected with lentivirus, subcutaneous, vs miRNA Ctrl. The source says: (§5) It was investigated whether KMT9α loss might affect tumour growth in mice. Therefore, PC-3M and LNCaP cells were infected with lentivirus driving expression of either miRNA control (miRNA Ctrl) or miRNA against KMT9α (miRNA KMT9α) and implanted subcutaneously in the flank of immunocompromised mice. […] To investigate whether knockdown of KMT9α also blocks growth of enzalutamide-resistant tumours, LAPC4 EnzaR miCtrl and miKMT9α cells were implanted subcutaneously in the flank of immunocompromised, castrated mice.
(§6) pLenti6-miRNA Control and pLenti6-miRNA KMT9α constructs were used to produce recombinant lentiviruses to infect LNCaP, PC-3M and LAPC4 EnzaR cells as described^26. Five-week-old male severe combined immunodeficient mice were purchased from Charles River Laboratories. For tumour inoculation 5×10^6 LNCaP, 2×10^6 PC-3M, and 5×10^6 LAPC4 EnzaR cells infected with pLenti6-miRNA Control or pLenti6-miRNA KMT9α constructs were injected in NOD/SCID mice, respectively. Mice were castrated one week before injection of LAPC4 EnzaR. Cells were resuspended in 100 μl RPMI1640 mixed with 100 μl Matrigel (BD Biosciences) on ice and administered subcutaneously in the flank of each animal. The tumour size was determined by calliper measurements two times a week^24. Tumour volumes were calculated using the formula 4/3×π×r3. All experiments were performed according to the German Animal Protection Law with permission from the responsible local authorities.

Another data set deals with LNCaP xenograft tumours. The data set is described as follows: Growth of xenograft tumours in NOD/SCID mice. Format: in vivo. Conditions: cells infected with lentivirus, subcutaneous, vs miRNA Ctrl.
Source text: as §5, §6

Data set [5] relates to LAPC4 EnzaR xenograft tumours. The data set is described as follows: Growth of xenograft tumours in NOD/SCID mice. The class given is in vivo. Conditions: castrated mice, subcutaneous, vs miCtrl.
Source text: as §5, §6

Chain of recombinant KMT9 (C21orf127/TRMT112) (Q9Y5N5 whole entry): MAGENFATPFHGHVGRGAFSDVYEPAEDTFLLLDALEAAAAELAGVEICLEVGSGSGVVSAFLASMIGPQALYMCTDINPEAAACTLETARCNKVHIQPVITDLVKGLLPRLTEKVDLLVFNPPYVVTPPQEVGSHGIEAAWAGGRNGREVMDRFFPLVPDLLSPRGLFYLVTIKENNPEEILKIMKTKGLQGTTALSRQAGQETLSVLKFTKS
Chain of recombinant KMT9 (C21orf127/TRMT112) (Q9UI30 whole entry partner): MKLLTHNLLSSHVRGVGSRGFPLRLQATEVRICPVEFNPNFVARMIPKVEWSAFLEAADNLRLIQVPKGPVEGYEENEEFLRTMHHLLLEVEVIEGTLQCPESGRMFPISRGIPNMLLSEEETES
Chain of C21orf127(D103)/TRMT112 (Q9Y5N5 whole entry D103A): as the sequence (Q9Y5N5 whole entry) above, with D103A counted along it
Chain of C21orf127(D103)/TRMT112 (Q9UI30 whole entry partner): as the sequence (Q9UI30 whole entry partner) above
Chain of PRDM9 (Q9NQV7 whole entry): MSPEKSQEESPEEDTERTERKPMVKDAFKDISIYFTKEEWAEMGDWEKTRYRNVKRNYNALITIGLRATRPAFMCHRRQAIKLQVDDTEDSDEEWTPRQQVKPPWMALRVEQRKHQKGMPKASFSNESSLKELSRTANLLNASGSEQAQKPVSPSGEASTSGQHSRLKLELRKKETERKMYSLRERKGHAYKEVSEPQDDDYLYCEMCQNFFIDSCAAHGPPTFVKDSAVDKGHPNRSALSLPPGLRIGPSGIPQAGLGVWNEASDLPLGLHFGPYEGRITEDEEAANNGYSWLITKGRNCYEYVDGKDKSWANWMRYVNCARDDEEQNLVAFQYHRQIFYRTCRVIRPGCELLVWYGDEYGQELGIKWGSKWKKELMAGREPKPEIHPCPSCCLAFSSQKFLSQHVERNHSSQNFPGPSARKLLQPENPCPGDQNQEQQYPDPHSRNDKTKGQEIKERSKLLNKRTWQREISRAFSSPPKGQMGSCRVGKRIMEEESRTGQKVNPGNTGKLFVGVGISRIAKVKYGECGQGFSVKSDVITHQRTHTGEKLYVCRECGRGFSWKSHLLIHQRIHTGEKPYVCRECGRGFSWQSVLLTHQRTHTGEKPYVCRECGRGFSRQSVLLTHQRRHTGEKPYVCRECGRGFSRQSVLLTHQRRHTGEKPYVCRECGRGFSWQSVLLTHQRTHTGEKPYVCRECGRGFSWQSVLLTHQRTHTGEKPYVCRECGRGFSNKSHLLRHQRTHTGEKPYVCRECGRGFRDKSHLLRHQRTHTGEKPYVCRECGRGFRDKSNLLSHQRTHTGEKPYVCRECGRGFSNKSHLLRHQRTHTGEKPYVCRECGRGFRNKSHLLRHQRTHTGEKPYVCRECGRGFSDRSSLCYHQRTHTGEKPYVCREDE
Chain of C21orf127 (Q9Y5N5 whole entry): as the sequence (Q9Y5N5 whole entry) above
Chain of C21orf127/TRMT112 (Q9Y5N5 whole entry): as above
Chain of C21orf127/TRMT112 (Q9UI30 whole entry partner): as the sequence (Q9UI30 whole entry partner) above
Chain of TRMT112 (Q9UI30 whole entry): as the sequence (Q9UI30 whole entry partner) above
Chain of NSD3 (Q9BZ95 whole entry): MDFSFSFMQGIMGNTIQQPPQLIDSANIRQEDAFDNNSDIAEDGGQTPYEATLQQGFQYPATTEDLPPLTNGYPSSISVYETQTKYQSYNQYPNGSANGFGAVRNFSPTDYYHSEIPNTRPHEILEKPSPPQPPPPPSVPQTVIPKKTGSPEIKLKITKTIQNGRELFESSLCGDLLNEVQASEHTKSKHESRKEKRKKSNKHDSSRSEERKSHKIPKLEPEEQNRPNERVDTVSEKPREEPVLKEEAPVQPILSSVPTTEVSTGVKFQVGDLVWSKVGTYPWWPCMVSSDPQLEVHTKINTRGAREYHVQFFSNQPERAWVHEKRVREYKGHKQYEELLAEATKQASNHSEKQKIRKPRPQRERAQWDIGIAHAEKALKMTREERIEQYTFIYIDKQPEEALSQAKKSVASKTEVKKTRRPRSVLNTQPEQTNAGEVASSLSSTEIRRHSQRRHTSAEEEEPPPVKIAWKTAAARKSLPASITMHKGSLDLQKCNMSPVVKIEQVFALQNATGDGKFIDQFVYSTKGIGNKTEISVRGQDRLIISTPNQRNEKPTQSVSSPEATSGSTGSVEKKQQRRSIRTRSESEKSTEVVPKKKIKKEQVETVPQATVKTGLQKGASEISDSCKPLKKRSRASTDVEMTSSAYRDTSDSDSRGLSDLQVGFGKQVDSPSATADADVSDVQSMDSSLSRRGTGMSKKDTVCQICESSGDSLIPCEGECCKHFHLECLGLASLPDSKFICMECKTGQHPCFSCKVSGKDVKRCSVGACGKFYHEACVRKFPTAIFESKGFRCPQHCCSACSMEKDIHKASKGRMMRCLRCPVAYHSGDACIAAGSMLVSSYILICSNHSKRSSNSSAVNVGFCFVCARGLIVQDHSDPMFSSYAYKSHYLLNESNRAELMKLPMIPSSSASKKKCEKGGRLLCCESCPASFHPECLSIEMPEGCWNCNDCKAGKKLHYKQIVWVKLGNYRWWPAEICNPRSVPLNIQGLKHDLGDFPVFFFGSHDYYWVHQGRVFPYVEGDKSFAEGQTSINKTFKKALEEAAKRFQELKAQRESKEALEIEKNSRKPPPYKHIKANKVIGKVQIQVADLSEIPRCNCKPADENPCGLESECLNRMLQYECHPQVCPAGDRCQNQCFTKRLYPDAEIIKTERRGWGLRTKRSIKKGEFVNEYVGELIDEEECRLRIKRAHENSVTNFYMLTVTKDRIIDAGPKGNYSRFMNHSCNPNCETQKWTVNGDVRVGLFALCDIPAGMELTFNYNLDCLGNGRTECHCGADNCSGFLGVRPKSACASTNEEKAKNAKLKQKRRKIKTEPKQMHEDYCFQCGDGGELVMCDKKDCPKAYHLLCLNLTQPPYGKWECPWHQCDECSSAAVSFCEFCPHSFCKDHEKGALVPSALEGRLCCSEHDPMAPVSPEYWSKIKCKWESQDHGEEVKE
Chain of SET8 (Q9NQR1 whole entry): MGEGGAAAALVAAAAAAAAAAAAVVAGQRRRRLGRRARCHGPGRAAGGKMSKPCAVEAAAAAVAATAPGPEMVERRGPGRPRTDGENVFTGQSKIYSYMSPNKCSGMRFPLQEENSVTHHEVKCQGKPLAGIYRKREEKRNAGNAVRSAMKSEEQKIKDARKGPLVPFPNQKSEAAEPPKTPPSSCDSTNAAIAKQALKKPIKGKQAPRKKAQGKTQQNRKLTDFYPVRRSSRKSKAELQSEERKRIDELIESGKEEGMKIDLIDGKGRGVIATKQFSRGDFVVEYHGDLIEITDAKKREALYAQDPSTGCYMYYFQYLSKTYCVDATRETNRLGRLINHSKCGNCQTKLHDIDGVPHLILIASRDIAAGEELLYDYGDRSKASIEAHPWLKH

For the molecule `CN1C(=O)[C@@]23C[C@]4([C@]56C[C@@]78SS[C@@](CO)(C(=O)N7[C@H]5Nc5ccccc56)N(C)C8=O)c5ccccc5N[C@@H]4N2C(=O)[C@]1(CO)SS3` [Chaetocin], the half-inhibitory concentration (IC50) (usually the concentration that gives 50% inhibition) at NSD3 worked out at 0.0588 µM; on PRDM9, 0.354 µM; at ASH1L, 0.0274 µM.
For the molecule `CNc1ncnc2c1ccn2[C@@H]1C[C@H](CN(CCCNCCc2cccc(Oc3ccccc3)c2)CC[C@H](N)C(=O)OC)[C@@H](O)[C@H]1O` [Compound 75b, methyl (S)-2-amino-4-((((1R,2R,3S,4R)-2,3-dihydroxy-4-(4-(methylamino)-7H-pyrrolo[2,3-d]pyrimidin-7-yl)cyclopentyl)methyl)(3-((3-phenoxyphenethyl)amino)propyl)amino)butanoate], the proliferation result in the data set with A549 lung tumour cells is “blocks proliferation”; with HepG2 cells, “does not affect proliferation”; in data set [1] it was “blocks proliferation”; in data set [2] (final concentration of 30 μM, vs DMSO), “blocks proliferation”; in data set [3], “blocks proliferation”.
Consider `CC(C)N(CCCNC(=O)Nc1ccc(C(C)(C)C)cc1)C[C@H]1O[C@@H](n2ccc3c(N)ncnc32)[C@H](O)[C@@H]1O` [EPZ004777], for which the “HMT activity of KMT9 (histone H4 methylation)” value (from here on “HMT activity of KMT9”) in data set [4] is on record as “do not inhibit”.
As for `CC(C)N(C[C@H]1O[C@@H](n2cnc3c(N)ncnc32)[C@H](O)[C@@H]1O)[C@H]1C[C@@H](CCc2nc3cc(C(C)(C)C)ccc3[nH]2)C1` [EPZ5676], the “HMT activity of KMT9” value in data set [4] is “do not inhibit”.
As for `Cc1ccc(NC2=CC(=O)c3sc(C)nc3C2=O)cc1` [Ryuvidine], on SET8, the half-maximal inhibitory concentration (IC50) came to 0.775 µM.
For `C[S+](CC[C@H](N)C(=O)[O-])C[C@H]1O[C@@H](n2cnc3c(N)ncnc32)[C@H](O)[C@@H]1O` (stereo partly drawn) [SAM, S-adenosyl-methionine], the SAM binding entry at C21orf127, on TRMT112 and on C21orf127(D103)/TRMT112 was “no SAM binding” in each case. For the same molecule, binding at C21orf127/TRMT112 was put at a Kd of 2.5 µM.
In the case of `CC(C)N(CCCNC(=O)Nc1ccc(C(C)(C)C)cc1)C[C@H]1O[C@@H](n2cc(Br)c3c(N)ncnc32)[C@H](O)[C@@H]1O` [SGC0946], the “HMT activity of KMT9” value in data set [4] is reported as “do not inhibit”.
Regarding `Nc1ncnc2c1ncn2[C@@H]1O[C@H](C[C@@H](N)CC[C@H](N)C(=O)O)[C@@H](O)[C@H]1O` [sinefungin], the “HMT activity of KMT9” value in [4] is listed as “blocked”.
In the case of “siKMT9α-3′UTR: siRNA that targets the three-prime untranslated region of the endogenously transcribed KMT9α mRNA (SEQ ID NO: 4) (GGAACUACAUUAGACUUAGUGGAAA; listed as RNA, chemistry not given here)”, the proliferation entry in data set [2] (LNCaP-LacZ control cells, vs siCtrl) was “strongly impaired”.

B1: miRNA KMT9α: miRNA against KMT9α expressed from lentivirus pLenti6-miRNA KMT9α (SEQ ID NO: 1, 2) (nucleic acid)
chain 1: TGCTGATGTGAACTTTGTTACAGCGTGTTTTGGCCACTGACTGACACGCTGTAAAAGTTCACAT
chain 2: CCTGATGTGAACTTTTACAGCGTGTCAGTCAGTGGCCAAAACACGCTGTAACAAAGTTCACATC
With B1, the “growth and final weight of xenografts” value (with PC-3M xenograft tumours; with LNCaP xenograft tumours; in data set [5]) was “strongly reduced” throughout.
